Experimental data taken from the supplement of paper PMC11208160.

Experiment: recombinant UMI read abundance after kanamycin selection (control-corrected) (log10(CPM+1)); higher = more efficient recombination; extreme values may be limits of the assay; sequences stand for … in AGTGCAGAGAAAATCGGCCAGTTTTCTCTGCCTGCAGTCCGCATGCCGTGGGACCCCTTGGGTTCTAACCTGTTGCCTAGATTTATGCAGCGGACTGCCTTTCTCCCAAAGTGATAAACCGG…AGGTTGGTTTCACT; site = the 11-nt donor
In short: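 Pooled Escherichia coli screen of donor and donor-binding-loop pairs for the IS621 bridge recombinase. Each pair sits with a 12-nt UMI on a plasmid carrying a promoterless kanamycin gene. The library was co-electroporated with a target plasmid encoding a fixed target and T7-inducible recombinase, then plated with IPTG (0.07 mM) plus kanamycin, or unselected, each in two replicates. Recombinant UMIs were PCR-amplified across the donor–target junction and sequenced. Counts became CPM, averaged over replicates, scaled by control-derived factors and reported as log10(CPM+1).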
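Further: IS621 bridge recombinase in Escherichia coli cells against a fixed T5 target plasmid.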

Sequence | recombinant UMI read abundance (log10)
AGGAAGACATGGACCGGTTTTCCCGGTAATCCGTATTTGAC (site AGGAAGACTTG) | 0.571
AGGAAGACATGGACCGGTTTTCCCGGTAATCCGTATTTGCC (site AGGAAGACTAG) | 0.42
AGGAAGACATGGACCGGTTTTCCCGGTAATCCGTATTTGCC (site AGGAAGACTCG) | 0.723
AGGAAGACATGGACCGGTTTTCCCGGTAATCCGTATTTGCC (site AGGAAGACTGG) | 1.84
AGGAAGACATGGACCGGTTTTCCCGGTAATCCGTATTTGCC (site AGGAAGACTTG) | 1.8
AGGAAGACATGGACCGGTTTTCCCGGTAATCCGTATTTGGT (site AGGAAGACTAC) | 2.1
AGGAAGACATGGACCGGTTTTCCCGGTAATCCGTATTTGGT (site AGGAAGACTTG) | 0
AGGAAGCCATGGACCGGTTTTCCCGGTAATCCGTATTTGCC (site AGGAAGACTTG) | 0
AGGAAGCCATGGACCGGTTTTCCCGGTAATCCGTATTTGCC (site AGGAAGCCTGG) | 0
AGGAATACATGGACCGGTTTTCCCGGTAATCCGTATTTGCA (site AGGAAAACTTG) | 0.656
AGGAATACATGGACCGGTTTTCCCGGTAATCCGTATTTGCA (site AGGAACACTTG) | 1.48
AGGAATACATGGACCGGTTTTCCCGGTAATCCGTATTTGCA (site AGGAAGACTTG) | 0.151
AGGAATACATGGACCGGTTTTCCCGGTAATCCGTATTTGCA (site AGGAATACTTG) | 2.11
AGGAATACATGGACCGGTTTTCCCGGTAATCCGTATTTGGA (site AGGAAGACTTG) | 0.341
AGGAATACATGGACCGGTTTTCCCGGTAATCCGTATTTGGA (site AGGAATACTTC) | 1.69
AGGAATACATGGACCGGTTTTCCCGGTAATCCGTATTTGGG (site AGGAATACTCC) | 0.394
AGGACAACATGGACCGGTTTTCCCGGTAATCCGTATTTGAC (site AGGACAACTGT) | 2.26
AGGACAACATGGACCGGTTTTCCCGGTAATCCGTATTTGAC (site AGGACCACTGT) | 0
AGGACAACATGGACCGGTTTTCCCGGTAATCCGTATTTGAC (site AGGACGACTGT) | 0
AGGACAACATGGACCGGTTTTCCCGGTAATCCGTATTTGAC (site AGGACTACTGT) | 0
AGGACGACATGGACCGGTTTTCCCGGTAATCCGTATTTGAC (site AGGACAACTGT) | 2.09
AGGACGACATGGACCGGTTTTCCCGGTAATCCGTATTTGAC (site AGGACCACTGT) | 0.378
AGGACGACATGGACCGGTTTTCCCGGTAATCCGTATTTGAC (site AGGACGACTGT) | 3.14
AGGACGACATGGACCGGTTTTCCCGGTAATCCGTATTTGAC (site AGGACTACTGT) | 0
AGGACGACATGGACCGGTTTTCCCGGTAATCCGTATTTGCT (site AGGAAGACTTG) | 0

Sequence | recombinant UMI read abundance (log10)
AGGACGACATGGACCGGTTTTCCCGGTAATCCGTATTTGCT (site AGGACGACTAG) | 2.52
AGGACTACATGGACCGGTTTTCCCGGTAATCCGTATTTGAA (site AGGACTACTAT) | 1.41
AGGACTACATGGACCGGTTTTCCCGGTAATCCGTATTTGAA (site AGGACTACTCT) | 0.127
AGGACTACATGGACCGGTTTTCCCGGTAATCCGTATTTGAA (site AGGACTACTGT) | 0.477
AGGACTACATGGACCGGTTTTCCCGGTAATCCGTATTTGAA (site AGGACTACTTT) | 1.13
AGGACTACATGGACCGGTTTTCCCGGTAATCCGTATTTGCC (site AGGACTACTGA) | 0
AGGACTACATGGACCGGTTTTCCCGGTAATCCGTATTTGCC (site AGGACTACTGC) | 0
AGGACTACATGGACCGGTTTTCCCGGTAATCCGTATTTGCC (site AGGACTACTGG) | 2.23
AGGACTACATGGACCGGTTTTCCCGGTAATCCGTATTTGCC (site AGGACTACTGT) | 0
AGGACTGCATGGACCGGTTTTCCCGGTAATCCGTATTTGAG (site AGGACTGCTCT) | 1.79
AGGAGGACATGGACCGGTTTTCCCGGTAATCCGTATTTGCA (site AGGAAGACTTG) | 2.35
AGGAGGACATGGACCGGTTTTCCCGGTAATCCGTATTTGCA (site AGGACGACTTG) | 0.4
AGGAGGACATGGACCGGTTTTCCCGGTAATCCGTATTTGCA (site AGGAGGACTTG) | 2.56
AGGAGGACATGGACCGGTTTTCCCGGTAATCCGTATTTGCA (site AGGATGACTTG) | 0
AGGAGTACATGGACCGGTTTTCCCGGTAATCCGTATTTGAC (site AGGAATACTGT) | 1.29
AGGAGTACATGGACCGGTTTTCCCGGTAATCCGTATTTGAC (site AGGACTACTGT) | 0.225
AGGAGTACATGGACCGGTTTTCCCGGTAATCCGTATTTGAC (site AGGAGTACTGT) | 2.08
AGGAGTACATGGACCGGTTTTCCCGGTAATCCGTATTTGAC (site AGGATTACTGT) | 0.00638
AGGAGTACATGGACCGGTTTTCCCGGTAATCCGTATTTGTC (site AGGAGTACTGA) | 2.17
AGGAGTCCATGGACCGGTTTTCCCGGTAATCCGTATTTGAA (site AGGAGTCCTTT) | 1.07
AGGATAACATGGACCGGTTTTCCCGGTAATCCGTATTTGGC (site AGGATAACTGC) | 2.73
AGGATGACATGGACCGGTTTTCCCGGTAATCCGTATTTGTA (site AGGAAGACTTG) | 0
AGGATGACATGGACCGGTTTTCCCGGTAATCCGTATTTGTA (site AGGATGACTTA) | 2.6
AGGATGGCATGGACCGGTTTTCCCGGTAATCCGTATTTGGT (site AGGATGGCTAC) | 1.79
AGGATTCCATGGACCGGTTTTCCCGGTAATCCGTATTTGTT (site AGGATTCCTAA) | 0.226

Sequence | recombinant UMI read abundance (log10)
AGGATTCCATGGACCGGTTTTCCCGGTAATCCGTATTTGTT (site CGGAATCCTAA) | 0.0087
AGGCAACCATGGACCGGTTTTCCCGGTAATCCGTATTTGGG (site AGGCAACCTCC) | 0.112
AGGCCGACATGGACCGGTTTTCCCGGTAATCCGTATTTGCA (site AGGAAGACTTG) | 0
AGGCCGACATGGACCGGTTTTCCCGGTAATCCGTATTTGCA (site AGGCCGACTTG) | 1.81
AGGCCTGCATGGACCGGTTTTCCCGGTAATCCGTATTTGAA (site AGGCCTGCTTT) | 0.996
AGGCTTCCATGGACCGGTTTTCCCGGTAATCCGTATTTGCG (site AGGCTTCCTCG) | 0.745
AGGGAGACATGGACCGGTTTTCCCGGTAATCCGTATTTGCA (site AGGAAGACTTG) | 0.796
AGGGAGACATGGACCGGTTTTCCCGGTAATCCGTATTTGCA (site AGGCAGACTTG) | 0.473
AGGGAGACATGGACCGGTTTTCCCGGTAATCCGTATTTGCA (site AGGGAGACTTG) | 2.5
AGGGAGACATGGACCGGTTTTCCCGGTAATCCGTATTTGCA (site AGGTAGACTTG) | 0.162
AGGGATCCATGGACCGGTTTTCCCGGTAATCCGTATTTGTT (site AGGGATCCTAA) | 0.662
AGGGATCCATGGACCGGTTTTCCCGGTAATCCGTATTTGTT (site CGGAATCCTAA) | 0
AGGGCTACATGGACCGGTTTTCCCGGTAATCCGTATTTGCG (site AGGGCTACTCG) | 1.42
AGGGTGACATGGACCGGTTTTCCCGGTAATCCGTATTTGCA (site AGGAAGACTTG) | 0.666
AGGGTGACATGGACCGGTTTTCCCGGTAATCCGTATTTGCA (site AGGGTGACTTG) | 2.63
AGGTACCCATGGACCGGTTTTCCCGGTAATCCGTATTTGTG (site AGGTACCCTCA) | 0.0796
AGGTACCCATGGACCGGTTTTCCCGGTAATCCGTATTTGTG (site AGGTCCCCTCA) | 0.0158
AGGTACCCATGGACCGGTTTTCCCGGTAATCCGTATTTGTG (site AGGTGCCCTCA) | 0.0127
AGGTACCCATGGACCGGTTTTCCCGGTAATCCGTATTTGTG (site AGGTTCCCTCA) | 0.0248
AGGTACGCATGGACCGGTTTTCCCGGTAATCCGTATTTGAG (site AGGTACGCTCT) | 1.72
AGGTAGACATGGACCGGTTTTCCCGGTAATCCGTATTTGCA (site AGGAAGACTTG) | 1.23
AGGTAGACATGGACCGGTTTTCCCGGTAATCCGTATTTGCA (site AGGCAGACTTG) | 2.47
AGGTAGACATGGACCGGTTTTCCCGGTAATCCGTATTTGCA (site AGGGAGACTTG) | 0.688
AGGTAGACATGGACCGGTTTTCCCGGTAATCCGTATTTGCA (site AGGTAGACTTG) | 2.88
AGGTAGCCATGGACCGGTTTTCCCGGTAATCCGTATTTGCA (site AGGAAGACTTG) | 0
